Experimental data as given in publication PMC3466204 (PLoS ONE, 2012).
“And” between values parts separate entries of the source, which are not always exact repeats. Equal values may be shown once. Ends that are not written are not given here.

How the values were obtained:
C. sakazakii DPC 6440 [1] = experiment: Agarose gel diffusion assay, purified peptide; assay type: cell-based, Cronobacter sakazakii; details: purified peptide 60 µM; for Zone of inhibition, agarose gel diffusion: C. sakazakii DPC 6440, mean of triplicate assays
Procedure: (§1) Agarose-based deferred antagonism assays were carried out as follows: GM17/LB (0.03%) underlay was prepared with 10 mM sodium phosphate buffer (SPB) at pH 7.4 to which was added agarose (1% w/v agarose), autoclaved and cooled to 50°C. Bacteria grown to mid-logarithmic phase were harvested by centrifugation and washed with 10 mM SPB at pH 7.4. Bacteria were then added to 15 mls cooled underlay medium to reach a concentration of 2×10^7 colony-forming units (CFU)/mL. The inoculated medium was rapidly transferred into sterile Petri plates, allowed to solidify and dried. Wells (4.6 mm in diameter) were then made in the seeded plates. 10 µl volumes of cell-free supernatant from overnight nisin derivative producing cultures or resuspended purified peptides were then added to the wells and the plates incubated at 30°C (L. lactis) or 37°C (Gram positive strains) or RT (Gram negative strains) for 3 hours. Polymyxin B (Sigma Aldrich) was used at a concentration of 20 µg/ml. The plates were then overlaid with 15 mls of autoclaved double strength GM17 (L. lactis) or LB (Gram negatives) agarose (1% w/v agarose) overlay medium precooled to 50°C. The plates were then incubated overnight at the relevant temperature.

C. sakazakii DPC 6440 [2] = experiment: Broth MIC, Gram negative; assay type: cell-based, Cronobacter sakazakii; details: cells washed in 10 mM SPB pH 7.4, 2×10^5 CFU/mL, 2 h RT with peptide, then double strength LB, RT overnight, mean of triplicate assays
Procedure: (§2) Minimum inhibitory concentration determinations for Gram negative strains were carried out in triplicate in 96 well microtitre plates. Briefly, bacteria (E. coli, C. sakazakii and Salmonella) grown to mid-logarithmic phase were harvested by centrifugation, washed with 10 mM SPB at pH 7.4, and diluted to 2×10^5 colony-forming units (CFU)/mL in SPB. Nisin and nisin derivative peptides were resuspended in sterile HPLC water and 50 µL aliquots were added to wells containing 50 µL of 2×10^5 CFU of bacteria. Plates were incubated at RT for two hours with agitation. Double strength Luria–Bertani (LB) broth (100 µL) was added and the plates were incubated at RT overnight, the MIC was taken as the lowest concentration at which growth was inhibited.

C. sakazakii DPC 6440 [3] = experiment: Kill curve analysis; assay type: cell-based, Cronobacter sakazakii; details: 33 mg/L purified peptide, 2×10^5 cfu ml^−1, 37°C for 1 hour
Procedure: (§3) Using purified peptide in each case, 10 mM sodium phosphate buffer washed C. sakazakii, E. coli and Salmonella strains were diluted to a final concentration of 2×10^5 cfu ml^−1 and were exposed to nisin A, S29G and S29A at a concentration of 33 mg/L. Following incubation at 37°C for 1 hour, bacterial growth was monitored through plate counts.

Lactococcus lactis HP = experiment: Agarose-based assay of cell-free supernatants of S29X producing strains; details: for Zone Diameter (mm): agarose (1%) GM17 assay, 10 µl cell-free supernatant of overnight producing culture in 4.6 mm wells, L. lactis HP, 30°C; for % difference (zone relative to wild type): agarose assay of supernatants against L. lactis HP, wild type serine = 100
Procedure: as §1

E. durans 5133 = experiment: Broth MIC, Gram positive; assay type: cell-based, Enterococcus durans; details: broth microtitre, BSA pre-treated plates, 10^5 cfu ml^−1, 2-fold dilutions from 2.5 µM, 16 h 37°C, purified peptide, mean of triplicate assays
Procedure: (§4) Minimum inhibitory concentration determinations for Gram positive organisms were carried out in triplicate in microtitre plates (Sarstedt). 96 well microtitre plates were pre-treated with bovine serum albumin (BSA) prior to addition of the peptides. Briefly, to each well of the microtitre plate 200 µL of phosphate buffered saline (PBS) containing 1% (w/v) bovine serum albumin (PBS/BSA) was added and incubated at 37°C for 30 min. The wells were washed with 200 µL PBS and allowed to dry. Target strains were grown overnight in the appropriate conditions and medium, subcultured into fresh broth and allowed to grow to an OD600 of ∼0.5, diluted to a final concentration of 10^5 cfu ml^−1 in a volume of 0.2 ml. Wild type nisin and nisin mutant peptides were adjusted to a 10 µM (S. mitis, B. cereus), 7.5 µM (L. monocytogenes), 5 µM (hVISA) 2.5 µM (MRSA, E. durans), or 500 nM (L. lactis strains) starting concentration and 2-fold serial dilutions of each peptide were added to the target strain.

[4] = system: Salmonella enterica serovar Typhimurium UK1; experiment: Agarose gel diffusion assay, purified peptide; assay type: cell-based; details: purified peptide 60 µM; for Zone of inhibition, agarose gel diffusion: Salmonella Typhimurium UK1, mean of triplicate assays
Procedure: as §1

E. coli 0157-H7 [5] = experiment: Agarose gel diffusion assay, purified peptide; assay type: cell-based; details: purified peptide 60 µM; for Zone of inhibition, agarose gel diffusion: E. coli 0157-H7, mean of triplicate assays
Procedure: as §1

E. coli = experiment: Kill curve analysis; assay type: cell-based; details: 33 mg/L purified peptide, 2×10^5 cfu ml^−1, 37°C for 1 hour
Procedure: as §3

B. cereus DPC 6089 = experiment: Broth MIC, Gram positive; assay type: cell-based, Bacillus cereus; details: broth microtitre, BSA pre-treated plates, 10^5 cfu ml^−1, 2-fold dilutions from 10 µM, 16 h 37°C, purified peptide, mean of triplicate assays
Procedure: as §4

B. cereus DPC 6088 = experiment: Broth MIC, Gram positive; assay type: cell-based, Bacillus cereus; details: broth microtitre, BSA pre-treated plates, 10^5 cfu ml^−1, 2-fold dilutions from 10 µM, 16 h 37°C, purified peptide, mean of triplicate assays
Procedure: as §4

[6] = system: Salmonella enterica serovar Typhimurium UK1; experiment: Broth MIC, Gram negative; assay type: cell-based; details: cells washed in 10 mM SPB pH 7.4, 2×10^5 CFU/mL, 2 h RT with peptide, then double strength LB, RT overnight, mean of triplicate assays
Procedure: as §2

E. coli 0157-H7 [7] = experiment: Broth MIC, Gram negative; assay type: cell-based; details: cells washed in 10 mM SPB pH 7.4, 2×10^5 CFU/mL, 2 h RT with peptide, then double strength LB, RT overnight, mean of triplicate assays
Procedure: as §2

S. mitis UCC5000 = experiment: Broth MIC, Gram positive; assay type: cell-based, Streptococcus mitis; details: broth microtitre, BSA pre-treated plates, 10^5 cfu ml^−1, 2-fold dilutions from 10 µM, 16 h 37°C, purified peptide, mean of triplicate assays
Procedure: as §4

L. monocytogenes 10403S = experiment: Broth MIC, Gram positive; assay type: cell-based; details: broth microtitre, BSA pre-treated plates, 10^5 cfu ml^−1, 2-fold dilutions from 7.5 µM, 16 h 37°C, purified peptide, mean of triplicate assays
Procedure: as §4

S. aureus RF122 = experiment: Broth MIC, Gram positive; assay type: cell-based; details: broth microtitre, BSA pre-treated plates, 10^5 cfu ml^−1, 2-fold dilutions, 16 h 37°C, purified peptide, mean of triplicate assays
Procedure: as §4

L. monocytogenes LO28 = experiment: Broth MIC, Gram positive; assay type: cell-based; details: broth microtitre, BSA pre-treated plates, 10^5 cfu ml^−1, 2-fold dilutions from 7.5 µM, 16 h 37°C, purified peptide, mean of triplicate assays
Procedure: as §4

L. lactis MG1363 [8] = experiment: Broth MIC, Gram positive; assay type: cell-based; details: broth microtitre, BSA pre-treated plates, 10^5 cfu ml^−1, 2-fold dilutions from 500 nM, 16 h, purified peptide, mean of triplicate assays
Procedure: as §4

L. lactis HP = experiment: Broth MIC, Gram positive; assay type: cell-based; details: broth microtitre, BSA pre-treated plates, 10^5 cfu ml^−1, 2-fold dilutions from 500 nM, 16 h, purified peptide, mean of triplicate assays
Procedure: as §4

[9] = system: hVISA 32679 (heterogenous Vancomycin-intermediate S. aureus); experiment: Broth MIC, Gram positive; assay type: cell-based; details: broth microtitre, BSA pre-treated plates, 10^5 cfu ml^−1, 2-fold dilutions from 5 µM, 16 h 37°C, purified peptide, mean of triplicate assays
Procedure: as §4

[10] = system: ST 530 (Methicillin resistant S. aureus); experiment: Broth MIC, Gram positive; assay type: cell-based; details: broth microtitre, BSA pre-treated plates, 10^5 cfu ml^−1, 2-fold dilutions from 2.5 µM, 16 h 37°C, purified peptide, mean of triplicate assays
Procedure: as §4

[11] = system: ST 528 (Methicillin resistant S. aureus); experiment: Broth MIC, Gram positive; assay type: cell-based; details: broth microtitre, BSA pre-treated plates, 10^5 cfu ml^−1, 2-fold dilutions from 2.5 µM, 16 h 37°C, purified peptide, mean of triplicate assays
Procedure: as §4

S. typhimurium UK-1 = experiment: Kill curve analysis; assay type: cell-based, Salmonella enterica serovar Typhimurium; details: 33 mg/L purified peptide, 2×10^5 cfu ml^−1, 37°C for 1 hour
Procedure: as §3

C. sakazakii DPC 6440 [12] = experiment: Agarose gel diffusion assay, peptide alone or with polymyxin B nonapeptide (PMBN); assay type: cell-based, Cronobacter sakazakii; details: for Total area of inhibitory zone, peptide alone: purified peptide 30 µM alone; for Total area of inhibitory zone, peptide + PMBN: purified peptide 30 µM in combination with polymyxin B nonapeptide (PMBN) 20 µg/ml
Procedure: as §1
Polymyxin B (PMB) is a cyclic lipodecapaptide produced by bacteria of the genus Paenibacillus that acts primarily on the Gram negative cell wall, leading to rapid permeability changes in the cytoplasmic membrane and ultimately cell death. […] To that end, C. sakazakii DPC 6440 cells were treated with purified nisin A, S29G and S29A peptides alone (30 µM) or in combination with PMBN at a concentration of 20 µg/ml and determined the antimicrobial activity by agarose gel diffusion assay (Fig. 5). […] When used in combination with PMBN, a substantial synergistic effect was clearly evident (Fig. 5) but in this instance no significant difference in efficacy was observed between nisin A or either of the derivatives S29A or S29G.

L. lactis MG1363 [13] = details: truncated nisin, ref [36]; cited from earlier work
Description: The increased efficacy resulted from a single mutation located at serine 29, within the C-terminal of nisin. The importance of Serine 29 for activity has previously been noted when Chan et al report ...

Row | Substance | Zone of inhibition, agarose gel diffusion (C. sakazakii DPC 6440 [1]) | MIC (C. sakazakii DPC 6440 [2]) | Zone Diameter (mm) (Lactococcus lactis HP) | % difference (zone relative to wild type) (Lactococcus lactis HP) | MIC (E. durans 5133) | Zone of inhibition, agarose gel diffusion [4] | Zone of inhibition, agarose gel diffusion (E. coli 0157-H7 [5]) | MIC (B. cereus DPC 6089) | MIC (B. cereus DPC 6088) | MIC [6] | MIC (E. coli 0157-H7 [7]) | MIC (S. mitis UCC5000) | MIC (L. monocytogenes 10403S) | MIC (S. aureus RF122) | MIC (L. monocytogenes LO28) | MIC (L. lactis MG1363 [8]) | MIC (L. lactis HP) | MIC [9] | MIC [10] | MIC [11] | further results
1 | S29A: bioengineered nisin A derivative, serine 29 replaced by alanine (ITSISLCTPGCKTGALMGCNMKTATCHCAIHVSK; not fully specified (residues 2, 5, 33, bridges); cysteine pairing not given here; UniProt P13068 24-57, looked up, variant S29A) | 11.65±0.12 mm | 6.28 mg/L and 1.875 µM | 16.6±0.3 mm | 109 (0.004) % | 0.13 mg/L and 0.039 µM | 11.29±0.23 mm | 11.50±0.05 mm | 4.19 mg/L and 1.25 µM | 2 mg/L | 50.28 mg/L and 15 µM | 25.14 mg/L and 7.5 µM | 4.19 mg/L | 6.28 mg/L and 1.875 µM | 0.52 mg/L and 0.156 µM | 3.14 mg/L and 0.937 µM | 0.2 mg/L and 0.062 µM | 0.1 mg/L and 0.031 µM | 2 mg/L and 0.625 µM | 0.26 mg/L and 0.078 µM | 0.26 mg/L and 0.078 µM | Zone as % wt (C. sakazakii DPC 6440 [1]; C. sakazakii DPC 6440, relative to nisin A): 119 % wt; Killing compared with nisin A (plate counts) (C. sakazakii DPC 6440 [3]): greater activity than wildtype nisin A; Zone as % wt ([4]; Salmonella Typhimurium UK1, relative to nisin A): 114 % wt; Zone as % wt (E. coli 0157-H7 [5]; E. coli 0157-H7, relative to nisin A): 117 % wt; Killing compared with nisin A (plate counts) (E. coli): greater activity than wildtype nisin A; Killing compared with nisin A (plate counts) (S. typhimurium UK-1): greater activity than wildtype nisin A; Total area of inhibitory zone, peptide alone (C. sakazakii DPC 6440 [12]): 49.0±1.24 mm^2; Total area of inhibitory zone, peptide + PMBN (C. sakazakii DPC 6440 [12]): 121.5±6.3 mm^2
2 | nisin 1–28: truncated version of nisin, literature (ITSISLCTPGCKTGALMGCNMKTATCHC; ends and bridges not checked; cysteine pairing not given here; UniProt P13068 24-51, looked up, fragment) |  |  |  |  |  |  |  |  |  |  |  |  |  |  |  |  |  |  |  |  | fold reduced inhibitory activity relative to nisin (L. lactis MG1363 [13]): 100 fold
3 | nisin A (ITSISLCTPGCKTGALMGCNMKTATCHCSIHVSK; thioether (positions not given here); not fully specified (residues 2, 5, 33, bridges); also: lantibiotic, ring and dehydro modifications not given here; UniProt P13068 24-57, looked up) [wild type lantibiotic bacteriocin purified from L. lactis NZ9700; serine at position 29, reference compound] | 9.77±0.17 mm | 12.57 mg/L and 3.75 µM | 15.2±0.2 mm | 100% | 0.52 mg/L and 0.156 µM | 9.88±0.11 mm | 9.81±0.04 mm | 8.38 mg/L and 2.5 µM | 8.38 mg/L and 2.5 µM | > 100 mg/L and > 30 µM | 50.28 mg/L and 15 µM | 8.38 mg/L and 2.5 µM | 12.57 mg/L and 3.75 µM | 1.04 mg/L | 6.28 mg/L and 1.875 µM | 0.8 mg/L and 0.250 µM | 0.2 mg/L and 0.062 µM | 4.19 mg/L | 0.52 mg/L and 0.156 µM | 0.52 mg/L and 0.156 µM | MIC (S. aureus RF122; listed as NisinA): 0.312 µM; MIC ([9]; listed as NisinA): 1.25 µM; Total area of inhibitory zone, peptide alone (C. sakazakii DPC 6440 [12]): 40.0±2.3 mm^2; Total area of inhibitory zone, peptide + PMBN (C. sakazakii DPC 6440 [12]): 115.61±2.9 mm^2
